Results taken from patent US12343334B2, “Compositions and methods for treating severe constipation” (Serleva, Inc., priority 2018, dated 2025).

Test system: Male C57BL mice with loperamide-induced constipation
Experiment: Mouse model of loperamide-induced constipation
Format: in vivo
Conditions: Product 1 30 mg/kg oral gavage, 30 min after loperamide 10 mg/kg, final study day, compared to Loperamide/Vehicle
Experimental: Mouse Model of Loperamide-Induced Constipation
Male C57BL mice (6 to 8 weeks, 25-30 grams) were placed on high-fat diet (45% fat) and allowed to acclimate (singly housed on a 12 hr light/dark cycle) for 6 days. Loperamide was administered by oral gavage at 10 mg/kg (10% DMSO/90% of 20% SBE-β-CD in saline) for 3 consecutive days prior to study initiation.
Daily loperamide dosing was continued throughout the entire study. On the 4, day of loperamide administration, Product 1 (30 mg/kg in 10% DMSO/90% of 20% SBE-β-CD in saline) was administered 30 minutes later by oral gavage. Sequential treatment of loperamide and Product 1 (30 minutes post-loperamide dose) was continued for 2 additional days. On the final day of the study, a fourth group of animals received a single subcutaneous administration of naloxone (1 mg/kg) as a positive control.
On the final study day, the number of fecal pellets and pellet weights for each animal were recorded hourly for the 6 hours following dosing. Fecal pellet output was then recorded every other hour for the period of 6-12 hours post-dosing. Additionally, total fecal pellet count for the period of 12 to 24 hours was measured. Fecal pellets were dried for 24 hours and dry weight recorded.
Prism software (GraphPad Prism, San Diego, CA) was employed for graphs and curve fitting. Data was analyzed using a two-way ANOVA with post-hoc LSD test.

O=C(O)CC1CCC(c2ccc(-c3ccc(Nc4ccc(C(F)(F)F)nc4)cn3)cc2)CC1 (stereo not drawn) [Product 1]
significant increase: wet weights of fecal pellets (FPWW) (1-4 hours after administration, FIG. 2) | dry weights of fecal pellets (FPDW) (1-4 hours after administration, FIG. 3) | fecal pellet output (FPCO) (first 1-4 hours after administration, FIG. 1)
